The text below walks through data of patent publication US9758485B2, “Compounds for controlling arthropods” (priority 2013, dated 2017).

Series [1] can be described thus: logP determination by HPLC on a reversed-phase column (C18), EEC Directive 79/831 Annex V.A8. It counts as physicochemical. Conditions: for log P: HPLC-MS, reversed-phase column (C18); for logP^a): HPLC-MS method a), Table I-T3.
In the next series the test system is Rhipicephalus sanguineus. Briefly: Rhipicephalus sanguineus - in vitro contact tests with adult brown dog ticks. The format is in vivo. Summed up:
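Test compound was dissolved in acetone p.a. (9 mg in 1 ml, then diluted), and 250 μl were spread evenly over the inner surface of 25 ml test tubes on an orbital shaker at 30 rpm for 2 h. Once the solvent evaporated, 5-10 adult Rhipicephalus sanguineus ticks were sealed in, kept dark at room temperature, and after 48 h placed on a 45-50° C. hotplate to score dead or moribund ticks.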

Series [2] deals with Ctenocephalides felis. Briefly: Ctenocephalides felis - in vitro contact tests with adult cat fleas. It counts as in vivo. Conditions: application rate 5 μg/cm^2 (=500 g/ha), after 48 h (dead or moribund). Summed up: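 Acetone solution coated on test-tube inner walls (900 ppm gives 5 μg/cm^2). After drying, 5-10 adult cat fleas added and kept horizontal at room temperature and ambient humidity. At 48 h fleas knocked down; motionless or uncoordinated ones counted dead/moribund, giving % efficacy.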

Another series relates to Amblyomma hebraeum. Briefly: Amblyomma hebraeum test (tick nymphs, immersion). The format is in vivo. Conditions: application rate 100 ppm; tick nymphs immersed for one minute; kill after 42 days. Summed up:
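Tick nymphs immersed for one minute in compound diluted in water from a DMSO concentrate, then held on filter paper in a Petri dish in a climate-controlled cabinet. Kill (%) scored after 42 days; 100% means all ticks dead, 0% none.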

The test system of another series is Boophilus microplus. The experiment in a line: Boophilus microplus - injection test. The format is in vivo. Conditions: application rate 20 μg/animal; injected into engorged adult female ticks; laying of fertile eggs, after 7 days. Summed up: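 DMSO formulation, 1 μl intra-abdominal injection, n=5 engorged adult females; climate-controlled room; score fertile eggs d7, unclear eggs held until larval hatch (~42 d); % efficacy, 100% = no fertile eggs.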

Series [3] deals with Boophilus microplus Parkhurst strain, SP-resistant. The experiment in a line: Boophilus microplus - dip test. It counts as in vivo. To be noted: application rate 100 ppm; dip of engorged adult female ticks; laying of fertile eggs, after 7 days. The gist of the method:
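Adult engorged females of SP-resistant Parkhurst strain (8–10 per tube) fully immersed in compound diluted in water from a DMSO solution. Ticks then kept on filter discs in a climate-controlled room; efficacy scored from fertile egg laying at 7 days, with unclear eggs held about 42 days until hatch (100% = no fertile eggs).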

Series [4] concerns Ctenocephalides felis. The experiment in a line: Ctenocephalides felis - oral test. The format is in vivo. To be noted: application rate 100 ppm in citrated cattle blood; adult fleas; kill after 2 days. Summed up: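 About 20 unfed adult cat fleas fed through a parafilm membrane on citrated cattle blood containing compound, dosed from a DMSO stock. Kill in % scored after 2 days; 100% means all fleas dead.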

Another series concerns Lucilia cuprina. Briefly: Lucilia cuprina test. It counts as in vivo. Conditions: application rate 100 ppm; L1 larvae in minced horsemeat; kill after 2 days. Summed up: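 About 20 L1 larvae placed on minced horsemeat treated with compound, formulated in DMSO and diluted with water to test concentration. Kill in % scored after 2 days (100% = all larvae dead, 0% = none).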
Another series has as its system Musca domestica. The experiment in a line: Musca domestica test. It counts as in vivo. Conditions: application rate 100 ppm; adult houseflies; kill after 2 days. Summed up:
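Compound in DMSO, diluted with water, applied to a sugar-solution sponge; vessels hold 10 adult houseflies. Percent mortality scored after 2 days.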

A further series relates to Phaedon cochleariae. The experiment in a line: Phaedon cochleariae - spray test. To be noted: Phaedon cochleariae, foliar, 168 h; application rate 100 g/ha; larvae on Chinese cabbage leaf discs; after 7 days; read-out: efficacy. It counts as in vivo. As for the experimental part:
Phaedon cochleariae—Spray Test
Solvent: 78.0 parts by weight of acetone and 1.5 parts by weight of dimethylformamide
Emulsifier: alkylaryl polyglycol ether
To produce an appropriate active ingredient formulation, 1 part by weight of active ingredient is dissolved using the specified parts by weight of solvent and made up with water containing an emulsifier concentration of 1000 ppm until the desired concentration is attained. To produce further test concentrations, the preparation is diluted with emulsifier-containing water.
Discs of Chinese cabbage leaves (Brassica pekinensis) are sprayed with an active ingredient formulation of the desired concentration and, after drying, populated with larvae of the mustard beetle (Phaedon cochleariae).
After 7 days, efficacy in % is determined. 100% means that all the beetle larvae have been killed; 0% means that no beetle larvae have been killed.

The mark [5] stands for this setting: application rate 5 μg/cm^2, after 48 h (dead or moribund).

Molecules are shown by their SMILES. Like-named read-outs stand apart in the source and are kept apart here.

The log P is the decadic logarithm of the partition coefficient of the neutral form, usually between octanol and water. Read a low log P as a more hydrophilic compound.

For the molecule `Cc1ncc(-c2cnn(-c3c(Cl)cc(C(F)(C(F)(F)F)C(F)(F)F)cc3Cl)c2)cc1C(=O)NC1CC1` [I-T3-91], the “log P” value in series [1] stood at 3.3. For the same molecule, the efficacy (in the series with Rhipicephalus sanguineus (setting [5]); in the series with Ctenocephalides felis [2]; in the series on Amblyomma hebraeum; in the series on Boophilus microplus; in [3]; in the series with Ctenocephalides felis [4]) was 100% in each case. In addition, the efficacy in the series with Lucilia cuprina and in the series with Musca domestica was 100% throughout.
`O=C(NC1CC1)c1cc(-c2cnn(-c3c(Cl)cc(C(F)(C(F)(F)F)C(F)(F)F)cc3OC(F)(F)F)c2)ccc1Cl` [I-T3-162]: the lipophilicity (log P) in series [1] amounted to 4.6. Besides, the efficacy (in the series with Rhipicephalus sanguineus (setting [5]); in the series on Ctenocephalides felis [2]; with Amblyomma hebraeum; in the series on Boophilus microplus; in [3]; in the series on Ctenocephalides felis [4]) was 100% throughout. Also, the efficacy in the series on Lucilia cuprina and with Musca domestica was 100% each time.
For the molecule `Cc1cc(C(F)(C(F)(F)F)C(F)(F)F)cc(Cl)c1-n1cc(-c2ccc(Cl)c(C(=O)NC3(C#N)CC3)c2)cn1` [I-T3-64], the “logP^a)” value in series [1] came to 4.2. Moreover, the efficacy in the series with Rhipicephalus sanguineus (application rate 0.2 μg/cm^2, after 48 h (dead or moribund)) was found to be 80%; in the series with Ctenocephalides felis [2] it was 100%; in the series with Amblyomma hebraeum, 100%; with Boophilus microplus, 100%; in series [3], 100%; in the series on Ctenocephalides felis [4], 100%. Moreover, the efficacy with Lucilia cuprina and with Musca domestica was 100% each time.
In the case of `Cc1cc(C(F)(C(F)(F)F)C(F)(F)F)cc(C)c1-n1cc(-c2cnc(Cl)c(C(=O)NC3CC3)c2)cn1` [I-T3-20], in [1], the “logP^a)” value came out at 3.8. Besides, the efficacy (in the series on Rhipicephalus sanguineus (setting [5]); in the series on Ctenocephalides felis [2]; in the series with Amblyomma hebraeum; in the series with Boophilus microplus; in series [3]; with Ctenocephalides felis [4]) was 100% each time. The efficacy in the series with Lucilia cuprina and with Musca domestica was 100% in each case.
For the molecule `O=C(NC1CC1)c1cc(-c2cnn(-c3c(Cl)cc(C(F)(C(F)(F)F)C(F)(F)F)cc3Cl)c2)cnc1Cl` [I-T3-42], the “logP^a)” value in series [1] amounted to 3.8. Besides, the efficacy (in the series with Rhipicephalus sanguineus (setting [5]); in the series on Ctenocephalides felis [2]; in the series with Amblyomma hebraeum; in the series with Boophilus microplus; in series [3]; in the series on Ctenocephalides felis [4]) was 100% each time. Also, the efficacy in the series with Lucilia cuprina and in the series on Musca domestica was 100% each time.
With `Cc1ncc(-c2cnn(-c3c(Cl)cc(C(F)(C(F)(F)F)C(F)(F)F)cc3Cl)c2)cc1C(=O)NC1(C#N)CC1` [I-T3-92], the lipophilicity (log P) in [1] is listed as 3.4. The efficacy is 80% with Rhipicephalus sanguineus (setting [5]); 100% with Ctenocephalides felis [2]; 100% with Amblyomma hebraeum; 100% in the series on Boophilus microplus; 100% in [3]; 100% with Ctenocephalides felis [4]. The efficacy in the series with Lucilia cuprina and with Musca domestica was 100% in each case.
On to `N#CC1(NC(=O)c2cc(-c3cnn(-c4c(Br)cc(C(F)(C(F)(F)F)C(F)(F)F)cc4C(F)(F)F)c3)ccc2Cl)CC1` [I-T3-155], for which the “log P” value in series [1] was determined as 4.4. Moreover, the efficacy (in the series with Rhipicephalus sanguineus (setting [5]); in the series with Ctenocephalides felis [2]; in the series on Amblyomma hebraeum; in the series with Boophilus microplus; in series [3]; in the series with Ctenocephalides felis [4]) was 100% in each case. The efficacy in the series with Lucilia cuprina and with Musca domestica was 100% each time.
For the molecule `O=C(NC1CC1)c1cc(-c2cnn(-c3c(Br)cc(C(F)(C(F)(F)F)C(F)(F)F)cc3C(F)(F)F)c2)ccc1Cl` [I-T3-148], in [1], the “log P” value worked out at 4.5. In addition, the efficacy (in the series with Rhipicephalus sanguineus (setting [5]); in the series on Ctenocephalides felis [2]; with Amblyomma hebraeum; with Boophilus microplus; in series [3]; with Ctenocephalides felis [4]) was 100% throughout. Also, the efficacy with Lucilia cuprina and in the series on Musca domestica was 100% throughout.
For the molecule `CCc1cc(C(F)(C(F)(F)F)C(F)(F)F)cc(Cl)c1-n1cc(-c2ccc(Cl)c(C(=O)NC3CC3)c2)cn1` [I-T3-72], the “logP^a)” value in series [1] was determined as 4.6. In addition, the efficacy (with Rhipicephalus sanguineus (setting [5]); in the series with Ctenocephalides felis [2]; with Amblyomma hebraeum; with Boophilus microplus; in series [3]; in the series on Ctenocephalides felis [4]) was 100% each time. For the same molecule, the efficacy in the series on Lucilia cuprina and in the series on Musca domestica was 100% throughout.
Take `O=C(NC1CC1)c1cc(-c2cnn(-c3c(Cl)cc(C(F)(C(F)(F)F)C(F)(F)F)cc3C(F)(F)F)c2)ccc1Cl` [I-T3-56]: the “logP^a)” value in series [1] was determined as 4.4. In addition, the efficacy (in the series with Rhipicephalus sanguineus (setting [5]); in the series with Ctenocephalides felis [2]; in the series on Amblyomma hebraeum; in the series on Boophilus microplus; in [3]; with Ctenocephalides felis [4]) was 100% in each case. In addition, the efficacy with Lucilia cuprina and in the series with Musca domestica was 100% each time.
`Cc1cc(C(F)(C(F)(F)F)C(F)(F)F)cc(Cl)c1-n1cc(-c2ccc(Cl)c(C(=O)NC3CC3)c2)cn1` [I-T3-63]: the “logP^a)” value in series [1] is recorded as 4.4. Moreover, the efficacy (in the series on Rhipicephalus sanguineus (setting [5]); in the series with Ctenocephalides felis [2]; in the series on Amblyomma hebraeum; with Boophilus microplus; in series [3]; in the series on Ctenocephalides felis [4]) was 100% throughout. Further, the efficacy with Lucilia cuprina and with Musca domestica was 100% in each case.
`Cc1cc(C(F)(C(F)(F)F)C(F)(F)F)cc(C(F)(F)F)c1-n1cc(-c2ccc(Cl)c(C(=O)NC3(C#N)CC3)c2)cn1` [I-T3-55]: the “logP^a)” value in series [1] is 4.3. In addition, the efficacy (with Rhipicephalus sanguineus (setting [5]); in the series with Ctenocephalides felis [2]; with Amblyomma hebraeum; with Boophilus microplus; in series [3]; with Ctenocephalides felis [4]) was 100% in each case. The efficacy with Lucilia cuprina and in the series with Musca domestica was 100% throughout.
Turning to `Cc1cc(C(F)(C(F)(F)F)C(F)(F)F)cc(C)c1-c1ccn(-c2ccc(Cl)c(C(=O)NC3CC3)c2)n1` [I-T2-1, 2-chloro-N-cyclopropyl-5-[3-[2,6-dimethyl-4-[1,2,2,2-tetrafluoro-1-(trifluoromethyl)ethyl]phenyl]pyrazol-1-yl]benzamide], the chromatographic logP in series [1] (reversed-phase HPLC column (C18), HPLC, reversed-phase C18, acetonitrile/water with formic acid, 55° C., read-out: logP) worked out at 4.9; in series [1] (reversed-phase HPLC column (C18), HPLC-MS method a); read-out: logP^a)), 4.9. The pest or weed control at 100 g/ha with Phaedon cochleariae turned out to be 100%.
In the case of `Cc1cc(C(F)(C(F)(F)F)C(F)(F)F)cc(C)c1-n1cc(-c2ccc(Cl)c(C(=O)NC3(C#N)CC3)c2)cn1` [I-T3-3], the “logP^a)” value in series [1] stood at 4.2. For the same molecule, the efficacy (in the series on Rhipicephalus sanguineus (setting [5]); in the series with Ctenocephalides felis [2]; in the series with Amblyomma hebraeum; in the series on Boophilus microplus; in series [3]; in the series with Ctenocephalides felis [4]) was 100% throughout. Moreover, the efficacy with Lucilia cuprina and in the series with Musca domestica was 100% in each case.
